{"source": "paper PMC10906223", "about": "(JCI Insight, 2024)", "key": {"[1]": {"tested_on": "diabetic NOD mice", "test": "Plasma glucagon in NOD mice after treatment", "assay_type": "in vivo, mouse", "set-up": "Plasma glucagon: unit not given beside the values", "description": "(§1) Terminal blood was collected into microfuge tubes containing K2-EDTA (supplemented by 45 mM phenylmethylsulphonyl fluoride and 0.77 μM aprotinin) through cardiac puncture. Plasma was separated by centrifugation (2,000g for 10 minutes at 4°C) and kept at –80°C until analysis. Plasma samples with hemolysis were excluded from the study. […] Values of BUN, creatinine, ALB, ALT, and AST were determined by a Roche Cobas C501 Autoanalyzer as performed by the Washington University Diabetes Research Center Translational Diagnostics Core. Reference intervals of blood chemistry parameters for inbred NOD mice were extracted from the Mouse Phenome Database (https://phenome.jax.org/)."}, "[2]": {"tested_on": "dispersed islet cells of donors with T1D", "test": "Insulin secretion from dispersed islet cells of donors with T1D", "assay_type": "cell-based, human", "details": "for Secretion of insulin: dispersed islet cells, T1D donors, one value per donor, Figure 2J", "description": "(§2) Pancreata of nondiabetic C57BL/6J mice were digested using collagenase P (Roche Diagnostics, catalog 11213873001), and islets were manually picked up using a stereomicroscope (ZEISS Stemi 305). […] Isolated mouse islets or provided human islets were dispersed as described ([28]). Briefly, 100–120 islets were washed 2 times using modified HBSS, then dispersed in 600 μL Accutase (Innovative Cell Technologies, catalog AT-104) by gently pipetting up and down for 7 minutes at 37°C. […] Following refreshing of KRBH, cells were dispensed in 8 microfuge tubes (2,000 cells/tube) and treated with WCDD301, preclustered Ephrin-A5 Fc, or preclustered Fc in the presence or absence of the competitive inhibitor of EphA4 receptor, rhyncophylline ([60]) (MilliporeSigma, catalog SML2345). In the presence or absence of these effectors, secretion assay was performed sequentially as shown in Supplemental Table 5. […] Preclustering of Ephrin-A5 Fc was done by mixing Ephrin-A5 Fc or Fc alone (BioLegend, catalog 790102) with anti-Fc antibody (Invitrogen, catalog A16086) (1:10 molar ratio) 20 minutes before treatment ([62]). […] Shedding of cleaved EphA4 was measured from the cell culture medium. Experiments were performed by dispersion of 200 islets, and EphA4 levels in media were measured by EphA4 ELISA (ABclonal, catalog RK06572).\n(§3) The Integrated Islet Distribution Program provided us human donor islets with their characteristics (Supplemental Table 6). Islets were centrifuged at 500g for 3 minutes, resuspended in CMRL 1066 medium (Gibco, catalog 1150-037) containing 11 mM glucose, and rested in an incubator overnight.\n(§4) For the hormone secretion assay, islets or dispersed islet cells were adapted in KRBH buffer containing 11 mM glucose for 1 hour. Then, after 2 washes in HBSS containing 11 mM glucose, islets or cells were treated in the following sequential order in the presence or absence of WCDD301: incubation in KRBH (1 mM glucose, 30 minutes) followed by medium collection, incubation in KRBH (11 mM glucose, 30 minutes) followed by medium collection."}, "[3]": {"tested_on": "murine dispersed islet cells", "test": "Glucagon secretion from murine dispersed islet cells", "assay_type": "cell-based, mouse", "details": "for Relative secretion of glucagon: one value per mouse", "description": "as §2"}, "[4]": {"tested_on": "human dispersed islet cells", "test": "Immunofluorescence: F-actin intensity in glucagon+ human dispersed islet cells", "assay_type": "cell-based", "description": "Coverslips were treated with WCDD301, preclustered Ephrin-A5 Fc, or preclustered Fc in the following sequential order: KRBH (11 mM glucose, 30 minutes), KRBH (1 mM glucose, 60 minutes), KRBH (1 mM glucose, 30 minutes), and KRBH (11 mM glucose, 60 minutes). After treatment, coverslips were washed once in PBS, fixed in 2% paraformaldehyde in PBS (30 minutes), and again washed in PBS. […] Following wash in PBS, coverslips were incubated in a mixture of Alexa Fluor 555 Phalloidin (Cell Signaling Technology, catalog 8953) and secondary antibodies (goat anti-rabbit Alexa Fluor 488, catalog A-21094, 1:1,000, Molecular Probes; and goat anti-mouse Alexa Fluor 633, catalog A21052, 1:1,000, Life Technologies) for 1 hour at RT. Both primary and secondary antibodies were diluted in blocking buffer containing 0.05% Tween 20. Coverslips were washed using PBS and counterstained by using DAPI (1:1,000) for 10 minutes. Following 2 washes in PBS, coverslips were mounted on glass slides using ProLong Glass Antifade Mountant (Invitrogen, catalog P36980). Images were captured using the Zeiss LSM880 microscope with a Plan-Apochromat 63× 1.4 NA objective lens by setting dual-band dichroic/filter for 405, 488, 561, and 633 nm laser excitation. For each slide, 25–30 fields of view were scanned, and in each field of view, 3–5 cells were imaged. […] Values of intensity were compared among groups using 1-way ANOVA, α = 0.05."}, "[5]": {"tested_on": "NOD mice", "test": "Blood chemistry parameters in WCDD301-treated NOD mice", "assay_type": "in vivo, mouse", "description": "as §1"}, "[6]": {"tested_on": "diabetic NOD mice", "test": "Plasma glutamine in NOD mice", "assay_type": "in vivo, mouse", "details": "WCDD301 group of NOD mice; quantity not given", "description": "as §1"}, "[7]": {"tested_on": "isolated islets of donors with T1D", "test": "Insulin secretion from isolated islets of donors with T1D", "assay_type": "cell-based, human", "details": "for Secretion of insulin: isolated islets, T1D donors, one value per donor, Figure 2I", "description": "as §3, §4"}}, "note": "Several values for one entry are separate records, joined by “and”; a condition that tells them apart may be missing. Equal entries are not always repeated.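 Throughout, for F-actin intensity: ImageJ intensity within ROI drawn around each glucagon+ cell.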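 Throughout, for Secretion of insulin: insulin concentration in collected medium by Lumit immunoassay.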", "data": [{"smiles": "CC(=O)OCC(N)(COC(C)=O)COC(C)=O", "note": "[WCDD301, 2-(acetoxymethyl)-2-aminopropane-1,3-diyl diacetate]", "values": [{"measurement": "Plasma glucagon", "setting": "[1]; WCDD301-treated diabetic NOD mice, per mouse, Figure 6B", "value": "22.15 and 11 and 44 and 25 and 47"}, {"measurement": "Effect on plasma glucagon", "setting": "[1]; diabetic NOD mice", "value": "suppression of glucagon levels"}, {"measurement": "Effect on insulin secretion", "setting": "[2]; dispersed islet cells from donors with long-standing T1D", "value": "no effect on the minimal residual insulin secretion"}, {"measurement": "Secretion of insulin", "setting": "[2]; 1 mM glucose", "value": "0.0567 and 0.08"}, {"measurement": "Secretion of insulin", "setting": "[2]; 11 mM glucose", "value": "0.07 and 0.05"}, {"measurement": "Effect on arginine-stimulated glucagon secretion", "setting": "[3]; 1 mM and 11 mM glucose, Arg 25 mM, 301 3 µM, E 4 µg/mL, Supplemental Figure 2", "value": "its effect was suppressed"}, {"measurement": "Effect on glucagon secretion", "setting": "[3]; 11 mM glucose, Figure 1F", "value": "suppressed glucagon secretion"}, {"measurement": "Secretion of glucagon", "setting": "[3]; 301 (1.5 µM) + Rhy (2.5 µM), Glucose (1 mM), Figure 1H", "value": "1.25 and 1.09 and 1.1 and 1.05 and 1"}, {"measurement": "Secretion of glucagon", "setting": "[3]; 301 (1.5 µM) + Rhy (2.5 µM), Glucose (11 mM), Figure 1H", "value": "0.64 and 0.69 and 0.7 and 0.75 and 0.72"}, {"measurement": "Relative secretion of glucagon", "setting": "[3]; 301 (1.5 µM), Glucose (1 mM), Figure 1F", "value": "0.81 and 0.78 and 0.75 and 0.68 and 0.86"}, {"measurement": "Relative secretion of glucagon", "setting": "[3]; 301 (1.5 µM), Glucose (11 mM), Figure 1F", "value": "0.91 and 0.85 and 1.05 and 0.78 and 1.01"}, {"measurement": "Secretion of glucagon", "setting": "[3]; 301 (3 µM) + Rhy (2.5 µM), Glucose (1 mM), Figure 1H", "value": "0.87 and 0.81 and 0.9 and 0.85 and 0.8"}, {"measurement": "Secretion of glucagon", "setting": "[3]; 301 (3 µM) + Rhy (2.5 µM), Glucose (11 mM), Figure 1H", "value": "0.41 and 0.5 and 0.46 and 0.45 and 0.48"}, {"measurement": "Relative secretion of glucagon", "setting": "[3]; 301 (3 µM), Glucose (1 mM), Figure 1F", "value": "0.89 and 0.7 and 0.75 and 0.68"}, {"measurement": "Relative secretion of glucagon", "setting": "[3]; 301 (3 µM), Glucose (11 mM), Figure 1F", "value": "0.83 and 0.75 and 0.7 and 0.8 and 0.87"}, {"measurement": "Glucagon secretion in presence of rhyncophylline", "setting": "[3]; WCDD301 3 μM, Figure 1H", "value": "outcompeted the inhibitor"}, {"measurement": "F-actin intensity", "setting": "[4]; human cells, individual values, Figure 3E", "value": "9.0 and 7.2 and 6.5 and 10.4 and 8.2 and 4.2 and 10.3 and 9.6 and 6.8"}, {"measurement": "Effect on intracellular F-actin", "setting": "[4]; α cells, human donors", "value": "increased intracellular F-actin density"}, {"measurement": "Blood chemistry markers (BUN, creatinine, ALB, ALT, AST)", "setting": "[5]; WCDD301-treated animals", "value": "remained in the normal range"}, {"measurement": "Creatinine (CREAT)", "setting": "[5]; non-diabetic NOD mice, 19-week-old, treated with WCDD301, mean ± SEM, n=5, reference interval 0.2-0.5", "value": "0.2 ± 0.1", "unit": "mg/dL"}, {"measurement": "Albumin (ALB)", "setting": "[5]; non-diabetic NOD mice, 19-week-old, treated with WCDD301, mean ± SEM, n=5, reference interval 1.72-3.54", "value": "3 ± 0.1", "unit": "g/dL"}, {"measurement": "Alanine aminotransferase (ALT)", "setting": "[5]; non-diabetic NOD mice, 19-week-old, treated with WCDD301, mean ± SEM, n=5, reference interval 5-394", "value": "20.5±9.5", "unit": "IU/L"}, {"measurement": "Blood urea nitrogen (BUN)", "setting": "[5]; non-diabetic NOD mice, 19-week-old, treated with WCDD301, mean ± SEM, n=5, reference interval 10-79", "value": "21 ± 2.3", "unit": "mg/dL"}, {"measurement": "Aspartate aminotransferase (AST)", "setting": "[5]; non-diabetic NOD mice, 19-week-old, treated with WCDD301, mean ± SEM, n=5, reference interval 18-586", "value": "99.5±57.5", "unit": "IU/L"}, {"measurement": "Plasma glutamine (Figure 7B)", "setting": "[6]", "value": "0.7 and 0.74 and 0.65 and 0.71"}, {"measurement": "Effect on insulin secretion", "setting": "[7]; islets from donors with long-standing T1D", "value": "no effect on the minimal residual insulin secretion"}, {"measurement": "Secretion of insulin", "setting": "[7]; 1 mM glucose", "value": "0.055 and 0.09"}, {"measurement": "Secretion of insulin", "setting": "[7]; 11 mM glucose", "value": "0.07 and 0.06"}]}]}
